Tested on: 624824-186-R-J3-PDC multicell spheroids, viability
Experiment: Anticancer human tumor 624824-186-R-J3-PDC patient-derived colon adenocarcinoma cell line growth inhibition [PI3K]
Details: for viability, T/C: stronger effect = lower value
Method in brief: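 Viability of mixed-cell spheroids was determined after exposure to pairwise combinations, one partner being inavolisib, alpelisib, duvelisib or copanlisib. Highest tested concentration matched clinical Cmax where known and 10 microM where not, descending in half-log steps.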

[1] = curve of first compound, second compound 0.0316 µM
[2] = curve of first compound, second compound 0.1 µM
[3] = curve of first compound, second compound 0.316 µM
[4] = curve of first compound, second compound 1 µM
[5] = second compound 0.0316 µM, first compound 0.0316 µM
[6] = second compound 0.0316 µM, first compound 0.1 µM
[7] = second compound 0.0316 µM, first compound 0.316 µM
[8] = second compound 0.0316 µM, first compound 1 µM
[9] = second compound 0.0316 µM, first compound 3.16 µM
[10] = second compound 0.0316 µM, first compound 10 µM
[11] = second compound 0.1 µM, first compound 0.0316 µM
[12] = second compound 0.1 µM, first compound 0.1 µM
[13] = second compound 0.1 µM, first compound 0.316 µM
[14] = second compound 0.1 µM, first compound 1 µM
[15] = second compound 0.1 µM, first compound 3.16 µM
[16] = second compound 0.1 µM, first compound 10 µM
[17] = second compound 0.316 µM, first compound 0.0316 µM
[18] = second compound 0.316 µM, first compound 0.1 µM
[19] = second compound 0.316 µM, first compound 0.316 µM
[20] = second compound 0.316 µM, first compound 1 µM
[21] = second compound 0.316 µM, first compound 3.16 µM
[22] = second compound 0.316 µM, first compound 10 µM
[23] = second compound 1 µM, first compound 0.0316 µM
[24] = second compound 1 µM, first compound 0.1 µM
[25] = second compound 1 µM, first compound 0.316 µM
[26] = second compound 1 µM, first compound 1 µM
[27] = second compound 1 µM, first compound 3.16 µM
[28] = second compound 1 µM, first compound 10 µM
[29] = curve of first compound, second compound 3.16 µM
[30] = curve of first compound, second compound 10 µM
[31] = second compound 3.16 µM, first compound 0.0316 µM
[32] = second compound 3.16 µM, first compound 0.1 µM
[33] = second compound 3.16 µM, first compound 0.316 µM
[34] = second compound 3.16 µM, first compound 1 µM
[35] = second compound 3.16 µM, first compound 3.16 µM
[36] = second compound 3.16 µM, first compound 10 µM
[37] = second compound 10 µM, first compound 0.0316 µM
[38] = second compound 10 µM, first compound 0.1 µM
[39] = second compound 10 µM, first compound 0.316 µM
[40] = second compound 10 µM, first compound 1 µM
[41] = second compound 10 µM, first compound 3.16 µM
[42] = second compound 10 µM, first compound 10 µM
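Further: spheroids exposed to agents for seven days before luminescence read.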
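Wherever viability, T/C is given: luminescent signal used as a stand-in for spheroid viability; percent viability relative to DMSO vehicle control wells taken as 100%.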

C#Cc1c(F)ccc2cc(O)cc(-c3ncc4c(N5CC6CCC(C5)N6)nc(OCC56CCCN5CC(F)C6)nc4c3F)c12 (stereo not given) + CC(Nc1ccc2c(c1)OCCn1cc(N3C(=O)OCC3C(F)F)nc1-2)C(N)=O
IC50 (curve of first compound, second compound 0.00316 µM): > 10 µM | IC50 (curve of first compound, second compound 0.01 µM): > 10 µM | IC50 [1]: > 10 µM | IC50 [2]: > 10 µM | IC50 [3]: > 10 µM | IC50 [4]: > 10 µM | viability, T/C (second compound 0.00316 µM, first compound 0.0316 µM): 106% | viability, T/C (second compound 0.00316 µM, first compound 0.1 µM): 108% | viability, T/C (second compound 0.00316 µM, first compound 0.316 µM): 100% | viability, T/C (second compound 0.00316 µM, first compound 1 µM): 108% | viability, T/C (second compound 0.00316 µM, first compound 3.16 µM): 104% | viability, T/C (second compound 0.00316 µM, first compound 10 µM): 122% | viability, T/C (second compound 0.01 µM, first compound 0.0316 µM): 109% | viability, T/C (second compound 0.01 µM, first compound 0.1 µM): 89.9% | viability, T/C (second compound 0.01 µM, first compound 0.316 µM): 97.1% | viability, T/C (second compound 0.01 µM, first compound 1 µM): 108% | viability, T/C (second compound 0.01 µM, first compound 3.16 µM): 103% | viability, T/C (second compound 0.01 µM, first compound 10 µM): 101% | viability, T/C [5]: 109% | viability, T/C [6]: 105% | viability, T/C [7]: 107% | viability, T/C [8]: 103% | viability, T/C [9]: 107% | viability, T/C [10]: 106% | viability, T/C [11]: 105% | viability, T/C [12]: 101% | viability, T/C [13]: 108% | viability, T/C [14]: 109% | viability, T/C [15]: 111% | viability, T/C [16]: 103% | viability, T/C [17]: 95.9% | viability, T/C [18]: 99.7% | viability, T/C [19]: 103% | viability, T/C [20]: 98% | viability, T/C [21]: 104% | viability, T/C [22]: 108% | viability, T/C [23]: 93.9% | viability, T/C [24]: 83.2% | viability, T/C [25]: 94.3% | viability, T/C [26]: 88.3% | viability, T/C [27]: 88.8% | viability, T/C [28]: 99.2%

CCCS(=O)(=O)Nc1ccc(F)c(C(=O)c2c[nH]c3ncc(-c4ccc(Cl)cc4)cc23)c1F + CC(Nc1ncnc2nc[nH]c12)c1cc2cccc(Cl)c2c(=O)n1-c1ccccc1
IC50 [1]: 4.91 µM | IC50 [2]: 4.92 µM | IC50 [3]: 5.07 µM | IC50 [4]: 4.8 µM | IC50 [29]: 4.68 µM | IC50 [30]: 2.45 µM | viability, T/C [5]: 102% | viability, T/C [6]: 101% | viability, T/C [7]: 89.4% | viability, T/C [8]: 98% | viability, T/C [9]: 76% | viability, T/C [10]: 7.94% | viability, T/C [11]: 102% | viability, T/C [12]: 104% | viability, T/C [13]: 94.1% | viability, T/C [14]: 90.5% | viability, T/C [15]: 78.9% | viability, T/C [16]: 6.92% | viability, T/C [17]: 102% | viability, T/C [18]: 95.2% | viability, T/C [19]: 108% | viability, T/C [20]: 91.7% | viability, T/C [21]: 80.4% | viability, T/C [22]: 7.81% | viability, T/C [23]: 99.9% | viability, T/C [24]: 103% | viability, T/C [25]: 91.5% | viability, T/C [26]: 84% | viability, T/C [27]: 78.2% | viability, T/C [28]: 7.61% | viability, T/C [31]: 100% | viability, T/C [32]: 90.5% | viability, T/C [33]: 97.1% | viability, T/C [34]: 81% | viability, T/C [35]: 74.2% | viability, T/C [36]: 9.32% | viability, T/C [37]: 97.4% | viability, T/C [38]: 74.6% | viability, T/C [39]: 73.7% | viability, T/C [40]: 60.5% | viability, T/C [41]: 56% | viability, T/C [42]: 11.7%

CCN1CCN(Cc2ccc(Nc3ncc(F)c(-c4cc(F)c5nc(C)n(C(C)C)c5c4)n3)nc2)CC1 + Cc1nc(NC(=O)N2CCCC2C(N)=O)sc1-c1ccnc(C(C)(C)C(F)(F)F)c1
IC50 [1]: > 1 µM | IC50 [2]: > 1 µM | IC50 [3]: > 1 µM | IC50 [4]: > 1 µM | IC50 [29]: 0.753 µM | IC50 [30]: 0.0296 µM | viability, T/C (second compound 0.0316 µM, first compound 0.00316 µM): 106% | viability, T/C (second compound 0.0316 µM, first compound 0.01 µM): 99.3% | viability, T/C [5]: 106% | viability, T/C [6]: 108% | viability, T/C [7]: 100% | viability, T/C [8]: 94.2% | viability, T/C (second compound 0.1 µM, first compound 0.00316 µM): 106% | viability, T/C (second compound 0.1 µM, first compound 0.01 µM): 109% | viability, T/C [11]: 112% | viability, T/C [12]: 107% | viability, T/C [13]: 97.5% | viability, T/C [14]: 89.6% | viability, T/C (second compound 0.316 µM, first compound 0.00316 µM): 102% | viability, T/C (second compound 0.316 µM, first compound 0.01 µM): 116% | viability, T/C [17]: 97.4% | viability, T/C [18]: 94.6% | viability, T/C [19]: 88.1% | viability, T/C [20]: 73.1% | viability, T/C (second compound 1 µM, first compound 0.00316 µM): 101% | viability, T/C (second compound 1 µM, first compound 0.01 µM): 105% | viability, T/C [23]: 98.1% | viability, T/C [24]: 81.6% | viability, T/C [25]: 62.9% | viability, T/C [26]: 58.3% | viability, T/C (second compound 3.16 µM, first compound 0.00316 µM): 85.3% | viability, T/C (second compound 3.16 µM, first compound 0.01 µM): 92% | viability, T/C [31]: 77.8% | viability, T/C [32]: 57% | viability, T/C [33]: 47.9% | viability, T/C [34]: 51.6% | viability, T/C (second compound 10 µM, first compound 0.00316 µM): 64.6% | viability, T/C (second compound 10 µM, first compound 0.01 µM): 59.6% | viability, T/C [37]: 50.4% | viability, T/C [38]: 41.5% | viability, T/C [39]: 36.6% | viability, T/C [40]: 48.6%

CC(Cn1ccc(-c2ccc(C#N)c(Cl)c2)n1)NC(=O)c1cc(C(C)O)[nH]n1 (stereo not given)
viability, T/C (compound 0.0316 µM): 96.5% [middle of 4 runs] | viability, T/C (compound 0.1 µM): 97.2% [middle of 4 runs] | viability, T/C (compound 0.316 µM): 105% [middle of 4 runs] | viability, T/C (compound 1 µM): 95.5% [middle of 4 runs] | viability, T/C (compound 3.16 µM): 99.4% [middle of 4 runs] | viability, T/C (compound 10 µM): 104% [middle of 4 runs] | IC50 (curve of compound): > 10 µM

Cn1nccc1Nc1nccc(-c2ccn(C(CO)c3ccc(Cl)c(F)c3)c(=O)c2)n1 (stereo not given) + CC(Nc1ncnc2nc[nH]c12)c1cc2cccc(Cl)c2c(=O)n1-c1ccccc1
IC50 [1]: > 10 µM | IC50 [2]: > 10 µM | IC50 [3]: > 10 µM | IC50 [4]: 9.34 µM | IC50 [29]: 2.84 µM | IC50 [30]: 0.633 µM | viability, T/C [5]: 103% | viability, T/C [6]: 93.9% | viability, T/C [7]: 95.1% | viability, T/C [8]: 76.9% | viability, T/C [9]: 61.2% | viability, T/C [10]: 57.4% | viability, T/C [11]: 103% | viability, T/C [12]: 85.4% | viability, T/C [13]: 94.5% | viability, T/C [14]: 74% | viability, T/C [15]: 61.2% | viability, T/C [16]: 57.3% | viability, T/C [17]: 89.7% | viability, T/C [18]: 88% | viability, T/C [19]: 87% | viability, T/C [20]: 72.7% | viability, T/C [21]: 62.6% | viability, T/C [22]: 51.8% | viability, T/C [23]: 98.5% | viability, T/C [24]: 88.2% | viability, T/C [25]: 91.2% | viability, T/C [26]: 77.7% | viability, T/C [27]: 61.8% | viability, T/C [28]: 49.4% | viability, T/C [31]: 103% | viability, T/C [32]: 88.1% | viability, T/C [33]: 74.8% | viability, T/C [34]: 63% | viability, T/C [35]: 47.4% | viability, T/C [36]: 38.5% | viability, T/C [37]: 89.6% | viability, T/C [38]: 81.7% | viability, T/C [39]: 59.4% | viability, T/C [40]: 43.5% | viability, T/C [41]: 35.5% | viability, T/C [42]: 30.2%

Source: PubChem BioAssay AID1963977 (Molecular Pharmacology Branch, DTP, NCI, 2024)
